Measured values as given in article PMC11224359, “Stable peptide-assembled nanozyme mimicking dual antifungal actions” (Nature Communications, 2024).

Experiment: Peptide self-assembly morphology by TEM
Assay type: physicochemical
Experimental: Powders of each of the peptides were dissolved in 1.5 mM Ni(Ac)2 solution to a certain concentration range (e.g. 0.0–1.5 mM) and sonicated for a period of time, and were then allowed to cool gradually to 25 °C overnight. Aged samples could be left at room temperature for more than 90 days.
TEM images were recorded using a JEM1200EX (JEOL) (Japan) operating at 100 kV dropped on a double copper net. Typically, 1.5 mM samples are diluted 10-fold and stained with 3% uranyl acetate for viewing. For AFM, liquid Ni-IH-7 ([…]) was dropped on a mica sheet and observed by Bruker Dension Icon (Germany). The AMFM data were fitted using the Analyze panel module in Igor Pro software to obtain a modulus curve, yielding the average Young’s modulus. Simultaneously, we utilized the Hertz model force curve fitting results to validate the reliability of the Young’s modulus. Cryo-EM and two-dimensional classification data of Ni-IH-7 were collected by Talos Arctica 200 kV FEG (USA). AMFM was tested using Cypher S (USA) in the presence of AC160TS-R3 (probe). Samples were diluted 50 times and dried on mica flakes. KPFM was tested using Cypher S (USA) and obtain the Contact potential difference. The standard highly oriented pyrolytic graphite was 675 mV. HAADF-STEM was obtained by JEM ARM 200 F (accelerating voltage: 200 kV) (JEOL, Japan).

In the case of ICICICI [heptapeptide ICICICI], the assembly into nanostructure is reported as “could not form typical nanostructure”.
